System: rice
Assay: Low temperature assay on rice seedlings
Format: in vivo
How it was run: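 Nine-day-old etiolated rice seedlings (grown on water at 30 °C±2 °C, dark) immersed in brassinolide analogues at 1–0.0001 mg/L or pure water, held at 1–5 °C for 24 hr. Plant height, leaf area, root weight read at 3, 6, 9, 12 days; leaf and tiller number at 12 days.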

## CC(C)C[C@@H](O)[C@H](O)[C@@H](C)[C@H]1CCC2C3CC(=O)C4C[C@H](O)[C@H](O)C[C@]4(C)C3CC[C@@]21C (stereo partly shown) [BR5]
0.001 mg/l, 2 °C, 6 days
  Area of leaf: 11.6 cm^2
  Height: 7.1 cm
  Weight of root: 3.0 g
0.001 mg/l, 2 °C, 9 days
  Area of leaf: 12.2 cm^2
  Height: 7.3 cm
  Weight of root: 3.2 g
0.001 mg/l, 2 °C, 12 days
  Area of leaf: 13.1 cm^2
  Height: 7.3 cm
  Number of leaf: 3
  Number of tiller: 3
  Weight of root: 3.9 g
0.001 mg/l, 3 °C, 3 days
  Area of leaf: 10 cm^2
  Height: 7 cm
  Weight of root: 2.5 g
0.001 mg/l, 3 °C, 6 days
  Area of leaf: 12 cm^2
  Height: 7 cm
  Weight of root: 2.6 g
0.001 mg/l, 3 °C, 9 days
  Area of leaf: 12.4 cm^2
  Height: 7.3 cm
  Weight of root: 2.9 g
0.001 mg/l, 3 °C, 12 days
  Area of leaf: 13 cm^2
  Height: 7.4 cm
  Number of leaf: 3
  Number of tiller: 2
  Weight of root: 2.9 g
0.001 mg/l, 4 °C, 3 days
  Area of leaf: 10 cm^2
  Height: 7.1 cm
  Weight of root: 2.5 g
0.001 mg/l, 4 °C, 6 days
  Area of leaf: 12.1 cm^2
  Height: 7.3 cm
  Weight of root: 2.6 g
0.001 mg/l, 4 °C, 9 days
  Area of leaf: 13 cm^2
  Height: 7.5 cm
  Weight of root: 2.9 g
0.001 mg/l, 4 °C, 12 days
  Area of leaf: 13.5 cm^2
  Height: 7.5 cm
  Number of leaf: 3
  Number of tiller: 2
  Weight of root: 2.9 g
0.001 mg/l, 5 °C, 3 days
  Area of leaf: 10.2 cm^2
  Height: 7.2 cm
  Weight of root: 2.8 g
0.001 mg/l, 5 °C, 6 days
  Area of leaf: 14 cm^2
  Height: 7.5 cm
  Weight of root: 2.9 g
0.001 mg/l, 5 °C, 9 days
  Area of leaf: 15.4 cm^2
  Height: 7.6 cm
  Weight of root: 3.0 g
0.001 mg/l, 5 °C, 12 days
  Area of leaf: 16 cm^2
  Height: 8 cm
  Number of leaf: 3
  Number of tiller: 3
  Weight of root: 3.4 g
0.01 mg/l, 1 °C, 3 days
  Area of leaf: 10.1 cm^2
  Height: 7.0 cm
  Weight of root: 2.8 g
0.01 mg/l, 1 °C, 6 days
  Area of leaf: 11.6 cm^2
  Height: 7.2 cm
  Weight of root: 3.0 g
0.01 mg/l, 1 °C, 9 days
  Area of leaf: 12 cm^2
  Height: 7.3 cm
  Weight of root: 3.1 g
0.01 mg/l, 1 °C, 12 days
  Area of leaf: 13.6 cm^2
  Height: 7.5 cm
  Number of leaf: 3
  Number of tiller: 3
  Weight of root: 3.9 g
0.01 mg/l, 2 °C, 3 days
  Area of leaf: 10.1 cm^2
  Height: 7.1 cm
  Weight of root: 2.8 g
0.01 mg/l, 2 °C, 6 days
  Area of leaf: 11.1 cm^2
  Height: 7.2 cm
  Weight of root: 3 g
0.01 mg/l, 2 °C, 9 days
  Area of leaf: 12.1 cm^2
  Height: 7.5 cm
  Weight of root: 3 g
0.01 mg/l, 2 °C, 12 days
  Area of leaf: 13.4 cm^2
  Height: 7.5 cm
  Number of leaf: 3
  Number of tiller: 3
  Weight of root: 3.2 g
0.01 mg/l, 3 °C, 3 days
  Area of leaf: 10.2 cm^2
  Height: 7.1 cm
  Weight of root: 2.5 g
0.01 mg/l, 3 °C, 6 days
  Area of leaf: 12 cm^2
  Height: 7.2 cm
  Weight of root: 2.6 g
0.01 mg/l, 3 °C, 9 days
  Area of leaf: 12.2 cm^2

From patent US9326506B2, “Preparation method, agricultural composition and applications of natural brassinolide analogs” (CHENGDU NEWSUN CROPSCIENCE CO., LTD, priority 2012, dated 2016)
